Laboratory results taken from US10967035B1, “Aquaculture feed additive” (HP Ingredients Corp., priority 2020, dated 2021).

Experiments:
[1] = test system: Piscirickettsia salmonis strain type LF-89; assay type: cell-based
[2] = test system: CD8+; assay: RT-qPCR of CD8+ expression in anterior kidney of fish fed supplemented diets; assay type: in vivo, rainbow trout; conditions: diet 15 days
Method: (§1) We compared several aquaculture diets suitable for use in commercial aquaculture. The standard diet was […] commercially available from Salmones […]., Los Angeles, Chile. […] Each diet was administered to each of three (3) cages for 15 days. […] We extracted total RNA from each sample, and then quantified the expression of IL-12 and CD8^+ using real-time quantitative PCR, according to the standardized protocols of the Aquatic Organisms Biotechnology Lab of the Universidad Austral de Chile.

[3] = test system: IL-12; assay: RT-qPCR of IL-12 expression in anterior kidney of fish fed supplemented diets; assay type: in vivo, rainbow trout; conditions: diet 15 days; NC 0.5 kg/ton, AP 1 kg/ton of feed
Method: as §1

Compound | inhibitory effect on bacterial growth ([1]; at the analyzed concentrations (0.98 to 500)) | CD8+ expression in anterior kidney compared to control group ([2]; NC 0.5 kg/ton, AP 1 kg/ton of feed) | stimulation of the immune activity markers compared to control ([2]; in vivo pilot test) | IL-12 expression in anterior kidney compared to control group [3] | mean inhibition in bacterial growth ([1]; 64, 32 and 16 μg/mL) [fold]
C=C1CC[C@@H]2[C@](C)(CO)[C@H](O)CC[C@@]2(C)[C@@H]1C/C=C1/C(=O)OC[C@H]1O [AP, andrographolide] | no significant differences in the inhibitory effect | increase the expression of CD8+ | 2.0 | depress the expression of IL-12 | 
CS(=O)(=O)c1ccc([C@@H](O)[C@@H](CF)NC(=O)C(Cl)Cl)cc1 [florfenicol] |  |  |  |  | 5
